From ChEMBL document CHEMBL1150879, “Synthesis of (+/-)-cassumunins A and B, new curcuminoid antioxidants having protective activity of the living cell against oxidative damage” (J Nat Prod, 1998)

Test system: Thymocyte
Experiment: Inhibition of H2O2-induced cell death of rat thymocyte assessed as cell viability
Assay type: functional, cell-based

SMILES	IC50
COc1cc(/C=C/C(=O)CC(=O)/C=C/c2cc(OC)c(O)c(C(C)/C=C/c3ccc(OC)c(OC)c3)c2)ccc1O (stereo not drawn) [CASSUMUNIN A]	170 nM
COc1cc(/C=C/C(=O)CC(=O)/C=C/c2cc(OC)c(O)c(C(C)/C=C/c3cc(OC)c(OC)cc3OC)c2)ccc1O (stereo not drawn) [CASSUMUNIN B]	220 nM
COc1cc(/C=C/C(=O)CC(=O)/C=C/c2ccc(O)c(OC)c2)ccc1O [CURCUMIN]	1020 nM
